Results published in patent publication US20080200474A1, “NOVEL FLUNARIZINE SALT FORMS AND METHODS OF MAKING AND USING THE SAME” (TRANSFORM PHARMACEUTICALS, INC., priority 2007, published 2008).
Where a name gives a salt, the structure may show the parent alone. Read-outs that look alike come from different tables or passages of the source.

Key:
[1] = assay type: physicochemical
Source text: Dynamic vapor sorption (DVS) analysis was completed on flunarizine benzoate from about 0 to about 95 percent relative humidity at about 25 degrees C. (See FIG. 5). […] This is characteristic of a nonhygroscopic material.
Dynamic vapor sorption (DVS) analysis was completed on flunarizine fumarate from about 0 to about 95 percent relative humidity at about 25 degrees C. (See FIG. 9). […] This is characteristic of a nonhygroscopic material.
Flunarizine dihydrochloride is hygroscopic. The dihydrochloride salt rapidly adsorbs water (greater than 7 percent change in mass) at relative humidity levels above about 60 percent. The release of the adsorbed water is difficult upon desorption. In comparison, the flunarizine benzoate salt of the present invention adsorbs relatively little water (less than 1 percent change in mass) at relative humidity levels up to about 95 percent.

[2] = Excipient compatibility, solid mixes sucrose:crospovidone:flunarizine salt 94:5:1 stored at 60 degrees C.; assay type: physicochemical; conditions: sucrose:crospovidone:salt 94:5:1 (weight %), wetted and dried, seal crimped, stored at 60 degrees C. for 2 weeks
Method: Two solid mixes, one containing sucrose:crospovidone:flunarizine dihydrochloride 94:5:1 (weight %), and the other containing sucrose:crospovidone:flunarizine benzoate 94:5:1 (weight %), were prepared in mortars, transferred to separate vials and a small amount of water was added until a very viscous syrup was formed. The samples were left to air dry at room temperature for two days followed by one day under vacuum at 40 degrees C. After the processing was finished, pictures of the samples were taken. Vials with identical content to the ones pictured were seal crimped and stored at 60 degrees C. for 2 weeks. After this period, their pictures were taken.

With `Fc1ccc(C(c2ccc(F)cc2)N2CCN(CC=Cc3ccccc3)CC2)cc1.O=C(O)c1ccccc1` [flunarizine benzoate, 1-cinnamyl-4-(di-p-fluorobenzhydryl)piperazine benzoate] the “stability over relative humidity (DVS)” value [1] was “stable from about 0% to about 95% relative humidity”, the “hygroscopicity (DVS)” value ([1]; about 25 degrees C.) was “nonhygroscopic” and the “water adsorption, change in mass” value ([1]; relative humidity levels up to about 95 percent) was “less than 1%”. The “degradation in excipient mix (comparison of images)” value [2] was “substantially more degradation had occurred in the mixes containing flunarizine dihydrochloride than those containing flunarizine benzoate”.

In the case of “1-cinnamyl-4-(di-p-fluorobenzhydryl)piperazine fumarate [flunarizine fumarate]”, the “stability over relative humidity (DVS)” value [1] is reported as “stable from about 0% to about 95% relative humidity” and the “hygroscopicity (DVS)” value ([1]; about 25 degrees C.) is reported as “nonhygroscopic”.

With `Fc1ccc(C(c2ccc(F)cc2)N2CCN(C/C=C/c3ccccc3)CC2)cc1` [flunarizine dihydrochloride, reference compound] the “release of the adsorbed water upon desorption” value ([1]; DVS desorption, about 25 degrees C.) was “difficult”, the “hygroscopicity (DVS)” value ([1]; about 25 degrees C.) was “hygroscopic” and the “water adsorption, change in mass” value ([1]; relative humidity levels above about 60 percent, about 25 degrees C.) was “greater than 7%”. The “degradation in excipient mix (comparison of images)” value [2] was “substantially more degradation”.
